The test system of the data set is physostigmine-induced lethality in mice. The data set can be described thus: Sedative effects in vivo, physostigmine-induced lethality test. The note with it: result in words, figures not given. How it is done:
The physostigmine-induced lethality test is being used in the present studies. This test is a modification of the sedation test technique reported by VILLANI et al., in U.S. Pat. No. 4,659,716. In short, physostigmine (1.9 mg/kg s.c.) produces 90-100% lethality when given to grouped mice with 10 animals in each plastic cage (approx. 11×26×13 cm). Mice administered a sedating agent, such as for example a sedative antihistamine prior to physostigmine are protected and survive. In the present study, test compounds are administered orally 60 minutes prior to physostigmine. The number of survivors is counted 30 minutes after physostigmine administration.

In the case of `CN(C)CCOC(c1ccccc1)c1ccccc1` [diphenhydramine, DIPHENHYDRAMINE], the “sedative activity / sedative side effects” value was “profound sedative side effects”.

The values are drawn from US6372799B1, “Non-sedating diphenhydramine metabolites” (Bridge Pharma, Inc., priority 1998, dated 2002).
